Data reported in patent US11583495B2, “Nasal composition comprising a mucoadhesive polymer” (Northriver Pharm, LLC, priority 2017, dated 2023).

Assay: Drug release through lamb buccal mucosa, flow-through Franz diffusion cell
Details: from CARBOPOL ETD 2020 NF (1%) solution containing triamcinolone and phenol
Protocol: Drug release through lamb buccal mucosa was evaluated via a flow-through Franz diffusion cell. Lamb buccal mucosa was clamped into the cell and the receptor chamber was filled with 5 mL of phosphate buffered solution (PBS). CARBOPOL® ETD 2020 NF (1%) solution containing triamcinolone and phenol was applied to the donor chamber. 0.5 mL of PBS was withdrawn from the receptor chamber every 30 minutes and replaced with fresh PBS over the course of 7 hours. Each sample was placed in a cuvette for testing via UV-Vis spectrophotometry. The sample was compared to a set of calibration standards of known concentrations for triamcinolone and phenol, independently. […] The peaks at 225 nm and 270 nm correspond to phenol, and the peak at 240 corresponds with triamcinolone.

Oc1ccccc1 [Phenol, phenol]
Phenol diffusion through the mucosa (UV-Vis, based on calibration curve, over 7 hours): less than 0.025%
amounts released over time and diffused through the lamb buccal mucosa (sampled every 30 minutes over 7 hours): Increasing amounts
